From US20230339889A1, “DERIVATIVES OF 2-OXO-N-(4-(PYRIMIDIN-4-YLOXY/THIO)PHENYL)-1,2-DIHYDROPYRIDINE-3-CARBOXAMIDE FOR USE AS PROTEIN KINASE INHIBITORS FOR THERAPY” (AUCENTRA THERAPEUTICS PTY LTD, priority 2020, published 2023)

What was measured:
[1] = target: CDK2E (Homo sapiens, UniProt P24941); test: ADP Glo Kinase assay; type: biochemical; details: 1 µM compound; read-out: % Residual enzymatic activity at 1 µM CDK2E
Experimental: (§1) Inhibition of CDKs and FLT3 were determined using ADP Glo Kinase assays, as previously described in International Patent Publication No WO 2017/020065.

[2] = system: FLT3-ITD; test: ADP Glo Kinase assay; type: biochemical; details: 1 µM compound
Experimental: as §1

[3] = target: CDK4D1 (Homo sapiens, UniProt P11802); test: ADP Glo Kinase assay; type: biochemical; details: 1 µM compound; read-out: % Residual enzymatic activity at 1 µM CDK4D1
Chain of CDK4D1 (P11802 whole entry): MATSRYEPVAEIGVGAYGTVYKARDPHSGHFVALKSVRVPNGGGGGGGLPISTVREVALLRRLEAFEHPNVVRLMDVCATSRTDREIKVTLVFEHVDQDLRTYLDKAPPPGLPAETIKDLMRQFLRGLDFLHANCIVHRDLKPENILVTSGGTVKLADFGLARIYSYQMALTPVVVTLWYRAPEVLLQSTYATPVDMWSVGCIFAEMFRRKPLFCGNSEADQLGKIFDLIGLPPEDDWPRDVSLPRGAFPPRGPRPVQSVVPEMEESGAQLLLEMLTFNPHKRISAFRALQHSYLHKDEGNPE
Chain of CDK4D1 (P24385 whole entry partner): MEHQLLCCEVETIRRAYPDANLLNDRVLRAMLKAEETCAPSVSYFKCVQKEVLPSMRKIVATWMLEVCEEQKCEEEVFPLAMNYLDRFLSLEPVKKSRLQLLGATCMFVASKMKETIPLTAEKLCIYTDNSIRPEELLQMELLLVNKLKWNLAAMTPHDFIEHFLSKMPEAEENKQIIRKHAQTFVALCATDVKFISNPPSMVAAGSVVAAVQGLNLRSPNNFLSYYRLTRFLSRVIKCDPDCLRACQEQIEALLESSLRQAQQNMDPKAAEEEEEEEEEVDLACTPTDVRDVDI
Experimental: as §1

[4] = system: MV4-11; test: Proliferation assay (MTT, leukaemia cancer cell line); type: cell-based; details: Homo sapiens; 1 µM compound, MV4-11 cells
Description: Compounds from Example 1 were subjected to standard resazurin and MTT assays on solid tumour and leukaemia cancer cell lines, respectively, as previously reported (Wang S et al., J Med Chem 47:1662-1675, 2004 and Diab S et al., CheMedChem 9:962-972, 2014).

[5] = target: T1, MET (Homo sapiens, UniProt P08581); test: Filter-binding radiometric kinase activity assay (KinaseProfiler, Eurofins); type: biochemical; details: 1 µM compound; read-out: % Residual enzymatic activity at 1 µM MET
T1 construct: purchased Eurofins Discovery (Kinase Profiler service)
T1 sequence (P08581 25-1390): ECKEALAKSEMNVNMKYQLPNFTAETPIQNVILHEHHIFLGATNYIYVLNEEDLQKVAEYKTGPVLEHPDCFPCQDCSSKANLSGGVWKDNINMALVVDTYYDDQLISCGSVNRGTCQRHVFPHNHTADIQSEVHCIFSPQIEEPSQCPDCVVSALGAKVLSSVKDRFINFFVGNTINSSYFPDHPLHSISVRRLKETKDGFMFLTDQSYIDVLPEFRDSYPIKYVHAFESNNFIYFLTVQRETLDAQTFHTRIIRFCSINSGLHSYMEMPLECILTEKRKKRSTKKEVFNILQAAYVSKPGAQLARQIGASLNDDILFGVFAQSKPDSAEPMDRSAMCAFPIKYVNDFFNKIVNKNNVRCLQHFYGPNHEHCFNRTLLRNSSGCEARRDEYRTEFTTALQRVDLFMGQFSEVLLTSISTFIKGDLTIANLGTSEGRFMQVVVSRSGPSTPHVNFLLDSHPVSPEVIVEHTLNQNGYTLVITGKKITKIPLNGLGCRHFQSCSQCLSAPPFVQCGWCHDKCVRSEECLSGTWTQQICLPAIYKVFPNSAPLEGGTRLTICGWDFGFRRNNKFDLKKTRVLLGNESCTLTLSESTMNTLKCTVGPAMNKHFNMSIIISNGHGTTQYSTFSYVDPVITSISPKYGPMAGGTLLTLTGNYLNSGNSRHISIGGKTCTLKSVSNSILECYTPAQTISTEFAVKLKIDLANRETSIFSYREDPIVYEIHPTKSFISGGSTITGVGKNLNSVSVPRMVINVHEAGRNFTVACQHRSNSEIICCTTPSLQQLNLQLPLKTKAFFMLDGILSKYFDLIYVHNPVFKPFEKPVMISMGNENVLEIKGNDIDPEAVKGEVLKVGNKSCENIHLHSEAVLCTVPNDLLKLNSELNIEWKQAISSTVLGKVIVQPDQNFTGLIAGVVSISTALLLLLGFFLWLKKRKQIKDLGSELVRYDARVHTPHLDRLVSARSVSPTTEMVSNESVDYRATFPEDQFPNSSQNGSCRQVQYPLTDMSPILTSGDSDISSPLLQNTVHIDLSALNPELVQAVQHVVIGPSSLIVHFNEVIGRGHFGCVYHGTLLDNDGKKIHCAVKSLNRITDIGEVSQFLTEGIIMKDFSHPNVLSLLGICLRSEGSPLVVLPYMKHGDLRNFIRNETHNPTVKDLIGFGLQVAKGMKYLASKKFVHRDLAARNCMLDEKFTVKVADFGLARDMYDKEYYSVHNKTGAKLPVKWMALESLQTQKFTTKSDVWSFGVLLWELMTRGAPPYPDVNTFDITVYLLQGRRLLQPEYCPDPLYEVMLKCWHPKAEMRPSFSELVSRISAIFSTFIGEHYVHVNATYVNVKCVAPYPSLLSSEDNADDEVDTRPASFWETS
Experimental: (§2) Filter-binding radiometric kinase activity assay (Kinase Profiler™) from Eurofins Discovery was used to determine the % of inhibition and/or IC50 values. […] The reaction is initiated by the addition of the Mg/ATP mixture. After incubation for 40 minutes at room temperature, the reaction is stopped by the addition of phosphoric acid to a concentration of 0.5%. 10 µL of the reaction is then spotted onto a P30 filter mat and washed four times for 4 minutes in 0.425% phosphoric acid and once in methanol prior to drying and scintillation counting. The IC50 values were derived by fitting a sigmoidal dose-response curve to a plot of assay readout over inhibitor concentration. All fits were computed with the GraphPad Prism Software (San Diego, CA, United States of America). Ki values were derived from IC5o values using Cheng Prusoff equation (Cheng Y et al., Biochem Pharmacol 22(23):3099-3108, 1973).

[6] = target: T2, TYRO3 (Homo sapiens, UniProt Q06418); test: as above; type: biochemical; details: 1 µM compound; read-out: % Residual enzymatic activity at 1 µM TYRO3
T2 construct: purchased Eurofins Discovery (Kinase Profiler service)
T2 sequence (Q06418 41-890): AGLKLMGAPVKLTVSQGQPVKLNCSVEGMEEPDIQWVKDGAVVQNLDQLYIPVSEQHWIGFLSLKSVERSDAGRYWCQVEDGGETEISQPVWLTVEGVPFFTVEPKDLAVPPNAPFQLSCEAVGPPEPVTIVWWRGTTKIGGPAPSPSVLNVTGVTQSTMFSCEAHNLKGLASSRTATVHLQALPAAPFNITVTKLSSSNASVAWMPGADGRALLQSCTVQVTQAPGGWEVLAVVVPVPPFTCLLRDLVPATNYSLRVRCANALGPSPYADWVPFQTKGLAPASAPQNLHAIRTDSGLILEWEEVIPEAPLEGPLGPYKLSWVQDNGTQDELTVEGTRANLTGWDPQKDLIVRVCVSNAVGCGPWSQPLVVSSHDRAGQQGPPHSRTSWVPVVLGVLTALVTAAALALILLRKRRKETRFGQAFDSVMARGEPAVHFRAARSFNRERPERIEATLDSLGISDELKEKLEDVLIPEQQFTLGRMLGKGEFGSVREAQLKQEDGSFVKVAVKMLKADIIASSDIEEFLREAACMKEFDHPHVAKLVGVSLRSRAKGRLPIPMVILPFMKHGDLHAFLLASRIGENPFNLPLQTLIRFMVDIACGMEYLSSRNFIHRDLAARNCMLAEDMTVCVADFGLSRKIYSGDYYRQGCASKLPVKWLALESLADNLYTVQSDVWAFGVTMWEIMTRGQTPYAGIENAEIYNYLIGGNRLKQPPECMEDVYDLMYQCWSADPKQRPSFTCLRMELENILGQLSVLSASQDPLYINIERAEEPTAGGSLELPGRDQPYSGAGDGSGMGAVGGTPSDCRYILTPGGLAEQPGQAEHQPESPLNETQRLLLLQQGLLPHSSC
Experimental: as §2

[7] = target: T3, Mer (Homo sapiens, UniProt Q12866); test: as above; type: biochemical; details: 1 µM compound; read-out: % Residual enzymatic activity at 1 µM Mer
T3 construct: purchased Eurofins Discovery (Kinase Profiler service)
T3 sequence (Q12866 21-999): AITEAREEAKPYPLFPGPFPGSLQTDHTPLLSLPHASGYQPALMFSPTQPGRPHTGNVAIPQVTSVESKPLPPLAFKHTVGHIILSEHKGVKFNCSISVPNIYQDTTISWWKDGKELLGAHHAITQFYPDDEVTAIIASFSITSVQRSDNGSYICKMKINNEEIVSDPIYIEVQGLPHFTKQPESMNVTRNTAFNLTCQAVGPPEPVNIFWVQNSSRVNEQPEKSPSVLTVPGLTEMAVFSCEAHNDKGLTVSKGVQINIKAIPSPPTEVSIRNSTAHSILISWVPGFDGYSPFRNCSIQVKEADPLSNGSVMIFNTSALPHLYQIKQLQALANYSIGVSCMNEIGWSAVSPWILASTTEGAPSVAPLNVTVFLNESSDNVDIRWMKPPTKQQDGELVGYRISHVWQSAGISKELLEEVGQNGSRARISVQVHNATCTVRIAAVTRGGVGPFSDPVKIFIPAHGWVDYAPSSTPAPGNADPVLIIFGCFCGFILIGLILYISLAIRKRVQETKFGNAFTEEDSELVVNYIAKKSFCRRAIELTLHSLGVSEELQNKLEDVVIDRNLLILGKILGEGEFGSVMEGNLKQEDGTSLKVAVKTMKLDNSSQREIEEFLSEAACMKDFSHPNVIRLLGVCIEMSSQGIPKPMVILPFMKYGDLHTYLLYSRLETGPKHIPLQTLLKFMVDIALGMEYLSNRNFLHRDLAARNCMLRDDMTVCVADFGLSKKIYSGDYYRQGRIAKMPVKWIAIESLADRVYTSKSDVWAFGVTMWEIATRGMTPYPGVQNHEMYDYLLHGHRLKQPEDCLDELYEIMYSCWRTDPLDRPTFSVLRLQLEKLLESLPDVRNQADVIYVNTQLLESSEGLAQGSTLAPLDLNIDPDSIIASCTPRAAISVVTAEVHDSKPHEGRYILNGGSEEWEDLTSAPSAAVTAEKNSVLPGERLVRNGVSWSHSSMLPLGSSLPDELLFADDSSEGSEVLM
Experimental: as §2

[8] = target: T4, AXL (Homo sapiens, UniProt P30530); test: as above; type: biochemical; details: 1 µM compound; read-out: % Residual enzymatic activity at 1 µM AXL
T4 construct: purchased Eurofins Discovery (Kinase Profiler service)
T4 sequence (P30530 26-894): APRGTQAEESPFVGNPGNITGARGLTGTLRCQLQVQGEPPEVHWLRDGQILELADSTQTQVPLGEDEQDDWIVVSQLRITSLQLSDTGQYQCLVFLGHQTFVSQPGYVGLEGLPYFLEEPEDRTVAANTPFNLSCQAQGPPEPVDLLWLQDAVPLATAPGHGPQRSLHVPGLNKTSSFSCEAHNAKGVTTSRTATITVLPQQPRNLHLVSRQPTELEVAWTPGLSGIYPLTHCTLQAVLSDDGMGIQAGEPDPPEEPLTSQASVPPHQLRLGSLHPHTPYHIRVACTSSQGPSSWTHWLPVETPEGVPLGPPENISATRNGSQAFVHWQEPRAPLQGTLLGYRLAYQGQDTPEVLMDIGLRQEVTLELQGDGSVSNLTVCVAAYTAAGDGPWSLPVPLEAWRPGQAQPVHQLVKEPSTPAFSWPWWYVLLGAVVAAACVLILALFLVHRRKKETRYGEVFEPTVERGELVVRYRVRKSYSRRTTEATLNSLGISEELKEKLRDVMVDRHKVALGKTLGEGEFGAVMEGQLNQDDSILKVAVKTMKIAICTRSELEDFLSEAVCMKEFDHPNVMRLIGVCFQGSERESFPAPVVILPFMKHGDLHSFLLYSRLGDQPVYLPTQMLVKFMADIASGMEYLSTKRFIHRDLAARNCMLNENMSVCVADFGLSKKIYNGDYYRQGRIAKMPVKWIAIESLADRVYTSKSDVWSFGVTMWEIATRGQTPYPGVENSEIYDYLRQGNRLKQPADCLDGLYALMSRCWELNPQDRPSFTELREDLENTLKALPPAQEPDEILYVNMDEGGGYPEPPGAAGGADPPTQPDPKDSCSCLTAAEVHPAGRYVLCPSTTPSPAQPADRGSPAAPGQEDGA
Experimental: as §2

SMILES | remaining activity at 1 µM [1] [%] | % Residual enzymatic activity at 1 µM FLT3-ITD [2] [%] | remaining activity at 1 µM [3] [%] | activity at 1 µM [4] [%] | remaining activity at 1 µM [5] [%] | remaining activity at 1 µM [6] [%] | remaining activity at 1 µM [7] [%] | remaining activity at 1 µM [8] [%]
CCOc1ccn(-c2ccc(F)cc2)c(=O)c1C(=O)Nc1ccc(Oc2ncnc(N)c2Cl)c(F)c1 [Cmpd 2, N-(4-((6-amino-5-chloropyrimidin-4-yl)oxy)-3-fluorophenyl)-4-ethoxy-1-(4-fluorophenyl)-2-oxo-1,2-dihydropyridine-3-carboxamide] | 94 | 52 | 38 | 15 | 2 | 0 | 1 | 2
Nc1ncnc(Oc2ccc(NC(=O)c3cccn(-c4ccc(F)cc4)c3=O)cc2Cl)c1F [Cmpd 22, N-(4-((6-amino-5-fluoropyrimidin-4-yl)oxy)-3-chlorophenyl)-1-(4-fluorophenyl)-2-oxo-1,2-dihydropyridine-3-carboxamide] |  | 43 |  | 3 | 93 | 63 | 89 | 57
Nc1ncnc(Oc2ccc(NC(=O)c3cccn(-c4ccc(F)cc4)c3=O)cc2Cl)c1Cl [Cmpd 23, N-(4-((6-amino-5-chloropyrimidin-4-yl)oxy)-3-chlorophenyl)-1-(4-fluorophenyl)-2-oxo-1,2-dihydropyridine-3-carboxamide] |  | 51 |  | 1 | 98 | 63 | 95 | 67
